For 1 compound, EC50 results are on record in article PMC5098229, “A Novel Non-Peptidic Agonist of the Ghrelin Receptor with Orexigenic Activity In vivo” (Scientific Reports, 2016).

pEC50: −log10 of the molar value.

This assay addresses T1, GHS-R1a receptor (ghrelin receptor) (Homo sapiens, UniProt Q92847).
T1 construct: gene GHSR; human GHS-R1a with C-terminal EGFP tag, stably expressed in Hek293a cells
The experiment in a line: calcium mobilisation in Hek-GHS-R1a-EGFP cells; no response in wild-type Hek or 5-HT2C cells; reduced by JMV2959. It is filed as cell-based.

T1 sequence (Q92847 whole entry): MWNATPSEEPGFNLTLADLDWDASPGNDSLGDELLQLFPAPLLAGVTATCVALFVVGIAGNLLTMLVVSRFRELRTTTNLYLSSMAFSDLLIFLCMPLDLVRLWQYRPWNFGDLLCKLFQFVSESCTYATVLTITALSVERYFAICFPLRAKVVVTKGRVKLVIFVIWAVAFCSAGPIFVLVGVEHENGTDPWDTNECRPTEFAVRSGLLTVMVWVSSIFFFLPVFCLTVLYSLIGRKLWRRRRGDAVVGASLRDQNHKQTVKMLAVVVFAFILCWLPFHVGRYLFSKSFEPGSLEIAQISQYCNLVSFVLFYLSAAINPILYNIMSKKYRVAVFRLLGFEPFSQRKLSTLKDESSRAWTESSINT

With `COc1cc(C)n(C)c(=O)c1C(F)(F)F` [compound 8, 4-Methoxy-1,6-dimethyl-3-(trifluoromethyl)pyridin-2(1H)-one], the pEC50 was 5.51.

As a reminder, the pEC50 is −log10 of the EC50, conventionally taken in molar units.
